# Test results reported in US3959468A, “Antibiotic equisetin and method of production” (The United States of America as represented by the …, priority 1974, dated 1976).
# Read-outs that look alike come from different tables or passages of the source.
# How the values were obtained:
# [1] = system: bacteria; conditions: cited from earlier work
# [2] = system: Mycobacterium phlei; test: Minimum inhibitory concentration, agar streak test on TGY agar (M. phlei); assay type: cell-based; conditions: Mycolicibacterium phlei
# Experimental: (§1) Minimum inhibitory concentrations for microorganisms. The F. equiseti NRRL 5537 antibiotic was diluted in ethanol. Streptomycin sulfate and isoniazid were diluted in water. Amounts up to 1 ml. were added to TGY agar to provide the desired double dilution test concentrations. Minimum inhibitory concentrations of the antimicrobial agents were determined by streaking a loopful of standardized suspensions of 24- to 48-hr. cultures of selected microorganisms onto the surface of 20 ml. of the modified TGY agar in a standard petri dish. Microorganisms were cultured on TGY agar slants and diluted with TGY broth to yield a transmittance of about 90% at 600 nm. in a Spectronic-20 spectrophotometer. All cultures grew on control plates containing 1 ml. ethanol per 100 ml. TGY agar. Bacteria were incubated at 37° C. and the fungi at room temperature.
# [3] = system: M. smegmatis; test: Minimum inhibitory concentration, agar streak test on TGY agar (M. smegmatis); assay type: cell-based; conditions: Mycolicibacterium smegmatis, NRRLB612, NRRL B-612, 37° C., 24 and 48 hr., read-out: Antimicrobial agent MIC
# Experimental: as §1
# [4] = system: M. rhodochrus; test: Minimum inhibitory concentration, agar streak test on TGY agar (M. rhodochrus); assay type: cell-based; conditions: NRRL B-2141, 37° C., 24 and 48 hr., read-out: Antimicrobial agent MIC
# Experimental: as §1
# [5] = system: Bacillus subtilis; test: Minimum inhibitory concentration, agar streak test on TGY agar (B. subtilis); assay type: cell-based
# Experimental: as §1
# [6] = system: Staphylococcus aureus; test: Minimum inhibitory concentration, agar streak test on TGY agar (S. aureus); assay type: cell-based
# Experimental: as §1
# [7] = system: Neisseria perflava; test: Minimum inhibitory concentration, agar streak test on TGY agar (N. perflava); assay type: cell-based
# Experimental: as §1
# [8] = system: gram-negative bacteria; test: Minimum inhibitory concentration, agar streak test on TGY agar (other gram-negative bacteria); assay type: cell-based; conditions: Neisseria perflava; tested gram-negative bacteria other than N. perflava; read-out: no inhibition at levels up to
# Experimental: as §1
# [9] = system: fungi; test: Minimum inhibitory concentration, agar streak test on TGY agar (fungi); assay type: cell-based; conditions: tested fungi; room temperature; read-out: no inhibition at levels up to
# Experimental: as §1
# [10] = system: some gram-positive bacteria and N. perflava; test: Comparison of MIC of equisetin with streptomycin and isoniazid; assay type: cell-based; conditions: in vitro, tested bacteria
# Experimental: as §1
# [11] = physchem; assay type: physicochemical
# Experimental: Melting points (uncorrected) were determined with a Fisher-Johns apparatus. Infrared spectra were obtained on a Beckman Model 1R-8 spectrophotometer from films deposited on KRS-5 plates (Wilks, Inc.) or from solutions in a 1-mm. sodium chloride cell. Mass spectra were obtained on a Nuclide high-resolution instrument Model 12-90G. Ultraviolet spectra were recorded from a Beckman DG-G with the absolute ethanol solutions of antibiotic at 25 μg./ml. Elemental analysis was carried out in a Perkin-Elmer CHN analyzer 240. Solubilities were measured by the procedure of Shriner et al. [The Systematic Identification of Organic Compounds. A Laboratory Manual, John Wiley and Sons., Inc., New York].
# [12] = assay type: physicochemical; conditions: for degradation peak, share of the sample: short columns (2 ft.)
# Experimental: Gas-liquid chromatography of F. equiseti NRRL 5537 preparations was carried out on a Bendix Model 2500 chromatograph equipped with on-column flame ionization detectors. Retention times of the antibiotic and its degradation product were determined on glass columns (2 ft. × 2 mm. and 6 ft. × 2 mm.) packed with SE-30 (3%) on Supelcon AW-DMCS (Supelco, Inc.). Operating parameters were: temperature, 180° or 190° C. isothermally for 2-ft. columns and programmed from 180° to 220° C. at 5° C./min. for 6-ft. columns; carrier gas, nitrogen (40 ml./min.); hydrogen (20 ml./min.); air (400 ml./min.); injection ports and detectors, 250° C. Samples were dissolved in absolute ethanol (10 mg./ml.), and 2 μl. were used for analyses. Peak areas and retention times were obtained with a Hewlett/Packard Model 3370 B integrator.
# [13] = in vivo; parameters: species or system Swiss-Webster female mice; conditions: mouse, in vivo, ip; intraperitoneal, propylene glycol, 25 g. Swiss-Webster female mice; read-out: intraperitoneal LD50 dose
# Experimental: (§2) Animal toxicity. Chromatographically pure antibiotic was dissolved in warm propylene glycol and injected intraperitoneally into 25 g. Swiss-Webster female mice. The LD50 dose was calculated by Weil's procedure (supra) with the following notation: K = 3; n = 6; r = 0, 1, 6, 6; d = 0.3010; and Da = 25 mg./kg. body weight.
# [14] = system: mice; test: in vivo; parameters: species or system Swiss-Webster female mice; conditions: for r (Weil's procedure notation): n = 6, Da = 25 mg./kg.
# Experimental: as §2
# [15] = NRRLB609, NRRL B-609, TGY agar, 37° C., 24 and 48 hr., read-out: Antimicrobial agent MIC
# [16] = NRRLB610, NRRL B-610, TGY agar, 37° C., 24 and 48 hr., read-out: Antimicrobial agent MIC
# [17] = NRRLB4051, NRRL B-4051, TGY agar, 37° C., 24 and 48 hr., read-out: Antimicrobial agent MIC
# [18] = NRRLB543, NRRL B-543, TGY agar, 37° C., 24 and 48 hr., read-out: Antimicrobial agent MIC
# [19] = NRRLB558, NRRL B-558, TGY agar, 37° C., 24 and 48 hr., read-out: Antimicrobial agent MIC
# [20] = NRRLB644, NRRL B-644, TGY agar, 37° C., 24 and 48 hr., read-out: Antimicrobial agent MIC
# [21] = NRRLB765, NRRL B-765, TGY agar, 37° C., 24 and 48 hr., read-out: Antimicrobial agent MIC
# [22] = NRRLB972, NRRL B-972, TGY agar, 37° C., 24 and 48 hr., read-out: Antimicrobial agent MIC
# [23] = NRRLB1650, NRRL B-1650, TGY agar, 37° C., 24 and 48 hr., read-out: Antimicrobial agent MIC
# [24] = NRRLB3284, NRRL B-3284, TGY agar, 37° C., 24 and 48 hr., read-out: Antimicrobial agent MIC
# [25] = seven strains, read-out: concentration at which strains were inhibited
# [26] = NRRLB120, NRRL B-120, TGY agar, 37° C., 24 and 48 hr., read-out: Antimicrobial agent MIC
# [27] = NRRLB124, NRRL B-124, TGY agar, 37° C., 24 and 48 hr., read-out: Antimicrobial agent MIC
# [28] = NRRLB313, NRRL B-313, TGY agar, 37° C., 24 and 48 hr., read-out: Antimicrobial agent MIC
# [29] = NRRLB678, NRRL B-678, TGY agar, 37° C., 24 and 48 hr., read-out: Antimicrobial agent MIC
# [30] = NRRLB1317, NRRL B-1317, TGY agar, 37° C., 24 and 48 hr., read-out: Antimicrobial agent MIC
# [31] = NRRLB1318, NRRL B-1318, TGY agar, 37° C., 24 and 48 hr., read-out: Antimicrobial agent MIC
# [32] = NRRLB2746, NRRL B-2746, TGY agar, 37° C., 24 and 48 hr., read-out: Antimicrobial agent MIC
# [33] = NRRLB1458, NRRL B-1458, TGY agar, 37° C., 24 and 48 hr., read-out: Antimicrobial agent MIC
# [34] = NRRLB1788, NRRL B-1788, TGY agar, 37° C., 24 and 48 hr., read-out: Antimicrobial agent MIC
# [35] = NRRLB1789, NRRL B-1789, TGY agar, 37° C., 24 and 48 hr., read-out: Antimicrobial agent MIC
# [36] = NRRLB1790, NRRL B-1790, TGY agar, 37° C., 24 and 48 hr., read-out: Antimicrobial agent MIC
# [37] = NRRLB1791, NRRL B-1791, TGY agar, 37° C., 24 and 48 hr., read-out: Antimicrobial agent MIC
# [38] = 100 or 200 mg./kg. intraperitoneal
molecule,measurement,setting,value
O=C1C=CCO1 [butenolide],antibacterial properties,[1],either lack or only exhibit weak antibacterial properties
CC=CC1C=CC2CC(C)CCC2C1(C)C(O)=C1C(=O)C(CO)N(C)C1=O (stereo not drawn) [equisetin],MIC,[2]; [15],1 µg/mL
same,MIC,[2]; [16],1 µg/mL
same,MIC,[2]; [17],2 µg/mL
same,MIC,"[2]; two of three strains, read-out: concentration at which strains were inhibited",≤ 1 µg/mL
same,MIC,[3],8 µg/mL
same,MIC,[4],0.5 µg/mL
same,MIC,[5]; [18],0.5 µg/mL
same,MIC,[5]; [19],0.5 µg/mL
same,MIC,[5]; [20],0.5 µg/mL
same,MIC,[5]; [21],0.5 µg/mL
same,MIC,[5]; [22],0.5 µg/mL
same,MIC,[5]; [23],1 µg/mL
same,MIC,[5]; [24],1 µg/mL
same,MIC,[5]; [25],≤ 1 µg/mL
same,MIC,[6]; [26],1 µg/mL
same,MIC,[6]; [27],1 µg/mL
same,MIC,[6]; [28],0.5 µg/mL
same,MIC,[6]; [29],1 µg/mL
same,MIC,[6]; [30],1 µg/mL
same,MIC,[6]; [31],1 µg/mL
same,MIC,[6]; [32],1 µg/mL
same,MIC,[6]; [25],≤ 1 µg/mL
same,MIC,[7]; [33],2 µg/mL
same,MIC,[7]; [34],2 µg/mL
same,MIC,[7]; [35],4 µg/mL
same,MIC,[7]; [36],1 µg/mL
same,MIC,[7]; [37],4 µg/mL
same,MIC,[8],> 128 µg/mL
same,MIC,[9],> 128 µg/mL
same,comparison of minimum inhibitory concentrations with streptomycin and isoniazid,[10],a lower concentration of equisetin were required for the in vitro inhibition of the tested bacteria than was required for inhibition by streptomycin or isoniazid
same,solubility,"[11]; acetone, organic solvent or mixture, read-out: solubility in acetone",> 660 mg/mL
same,solubility,"[11]; ethanol, organic solvent or mixture, read-out: solubility in ethanol",> 330 mg/mL
same,solubility,"[11]; methanol, organic solvent or mixture, read-out: solubility in methanol",> 220 mg/mL
same,solubility,"[11]; organic solvent or mixture, hexane, insoluble, read-out: solubility in hexane",< 0.8 mg/mL
same,solubility,"[11]; water, insoluble, read-out: solubility in water",< 0.3 mg/mL
same,antibiotic converted to the degradation product,"[12]; 6-ft. columns, 220° C.",almost half
same,"degradation peak, share of the sample",[12]; 180° C.,3%
same,"degradation peak, share of the sample",[12]; 190° C.,6-8%
same,LD50,[13],63 mg/kg
same,visible ill effects in surviving mice,"[14]; 25- or 50-mg./kg. doses intraperitoneal, 4 wk. of observation",no visible ill effects
same,condition of mice,[14]; [38],lethargic
same,"mortalities continued for, post-injection",[14]; [38],4 da.
same,time of death,[14]; [38],death did not occur before the second day after treatment
same,r (Weil's procedure notation),"[14]; first r, d = 0.3010 (25 mg./kg.)",0
same,r (Weil's procedure notation),"[14]; fourth r, d = 0.3010 (200 mg./kg.)",6
same,lethal action,"[14]; intraperitoneal, mice",Lethal action was slow
same,r (Weil's procedure notation),"[14]; second r, d = 0.3010 (50 mg./kg.)",1
same,r (Weil's procedure notation),"[14]; third r, d = 0.3010 (100 mg./kg.)",6
[H]/N=C(/N)N[C@H]1[C@H](O)[C@@H](O)[C@H](O[C@@H]2O[C@@H](C)[C@](O)(C=O)[C@H]2O[C@@H]2O[C@@H](CO)[C@H](O)[C@@H](O)[C@@H]2NC)[C@@H](N/C(N)=N\[H])[C@@H]1O [Streptomycin],MIC,[2]; [15],2 µg/mL
same,MIC,[2]; [16],2 µg/mL
same,MIC,[2]; [17],2 µg/mL
same,MIC,[3],2 µg/mL
same,MIC,[4],2 µg/mL
same,MIC,[5]; [18],4 µg/mL
same,MIC,[5]; [19],8 µg/mL
same,MIC,[5]; [20],2 µg/mL
same,MIC,[5]; [21],2 µg/mL
same,MIC,[5]; [22],8 µg/mL
same,MIC,[5]; [23],8 µg/mL
same,MIC,[5]; [24],4 µg/mL
same,MIC,[6]; [26],2 µg/mL
same,MIC,[6]; [27],4 µg/mL
same,MIC,[6]; [28],2 µg/mL
same,MIC,[6]; [29],8 µg/mL
same,MIC,[6]; [30],4 µg/mL
same,MIC,[6]; [31],8 µg/mL
same,MIC,[6]; [32],2 µg/mL
same,MIC,[7]; [33],2 µg/mL
same,MIC,[7]; [34],2 µg/mL
same,MIC,[7]; [35],2 µg/mL
same,MIC,[7]; [36],2 µg/mL
same,MIC,[7]; [37],4 µg/mL
NNC(=O)c1ccncc1 [Isoniazid],MIC,[2]; [15],4 µg/mL
same,MIC,[2]; [16],4 µg/mL
same,MIC,[2]; [17],4 µg/mL
same,MIC,[3],4 µg/mL
same,MIC,[4],64 µg/mL
same,MIC,"[5]; B. subtilis strains, Table 1 footnote 1 (explains the dashes), read-out: not inhibited by (isoniazid per ml. medium)",> 128 µg/mL
same,MIC,[5]; [18],128 µg/mL
same,MIC,"[6]; S. aureus strains, Table 1 footnote 1 (explains the dashes), read-out: not inhibited by (isoniazid per ml. medium)",> 128 µg/mL
same,MIC,"[7]; N. perflava strains, Table 1 footnote 1 (explains the dashes), read-out: not inhibited by (isoniazid per ml. medium)",> 128 µg/mL
C[C@H]1CCCC(=O)CCC/C=C/c2cc(O)cc(O)c2C(=O)O1 [zearalenone],antibacterial properties,[1],either lack or only exhibit weak antibacterial properties
fusariogenin,antibacterial properties,[1],either lack or only exhibit weak antibacterial properties
